According to patent US20260091103A1, “NOVEL COMPOSITIONS COMPRISING TERPENOID AND MACROMOLECULE, AND USES THEREOF” (Powin Biomedical Co., Ltd., priority 2022, published 2026):
“Also recorded” adds a separate entry of the source.

Key:
[1] = tested on: dendritic cells (CD11c+); experiment: Antigen-presenting cell recruitment in injected quadriceps muscle: dendritic cells (flow cytometry); type: in vivo, BALB/c mice; conditions: 50 μL i.m. into right quadriceps, versus vehicle-injected left quadriceps
Procedure: (§1) 15 BALB/c mice were randomly assigned into 5 groups (three mice per group), which were Paraffin oil@HACH group, Squalane@HACH group, Squalene@HACH group, Ocimene@HACH group, and Farnesene@HACH group.
(§2) 50 μL of the composition comprising Paraffin oil@HACH particles, composition comprising Squalane@HACH particles, composition comprising Squalene@HACH particles, composition comprising Ocimene@HACH particles, or composition comprising Farnesene@HACH particles (the test samples in this experiment) was injected intramuscularly into the right quadriceps of mice in the Paraffin oil@HACH group, Squalane@HACH group, Squalene@HACH group, Ocimene@HACH group, and Farnesene@HACH group, respectively; and 50 μL of sodium citrate buffer (pH=6.5) (the vehicle control in this experiment) was injected intramuscularly into the left quadriceps of mice in these groups to monitor the effect induced by the injection on each mouse.
(§3) The mice in each group were sacrificed at 5th day after injection.
(§4) The left quadriceps muscles and the right quadriceps muscles of each mouse were harvested respectively. The tendons were removed, and muscles were digested with 3 mL of phosphate buffered saline (PBS) containing 0.05% (w/v) type II collagenase, 10 μg/mL of DNase I, and 0.5% BSA at 37° C. for 40 min. The muscle digestion was quenched by the addition of excess medium; and then the cell suspension was collected by centrifugation at 1200 rpm for 5 min, resuspended in PBS, and filtered through a 70-μm nylon mesh (BD-Biosciences).
The degree of dendritic cell (CD11c^+) recruitment in each mouse was assessed according to the following formula (VI): […]
(§5) The experimental procedure was roughly the same as that described in Experiment 1-4. The only differences were the compositions administered to the mice.
(§6) Cholesterol group: 50 μL of the N-methyl-2-pyrrolidone (NMP) solution comprising cholesterol (0.25 mg/mL) (the test sample in this group) was injected intramuscularly into the right quadriceps of mice; and 50 μL of N-methyl-2-pyrrolidone solution (the vehicle control in this group) was injected intramuscularly into the left quadriceps of mice to monitor the effect induced by the injection on each mouse.
as §6, with “Squalene” for “Cholesterol”, “squalene (50 μL/mL)” for “cholesterol (0.25 mg/mL)”

[2] = tested on: macrophages (CD11b+); experiment: Antigen-presenting cell recruitment in injected quadriceps muscle: macrophages (flow cytometry); type: in vivo, BALB/c mice; conditions: 50 μL i.m. into right quadriceps, versus vehicle-injected left quadriceps
Procedure: as §1, §2, §3, §4
The degree of macrophage cell (CD11b^+) recruitment in each mouse was assessed according to the following formula (VII): […]
as §5, §6
as §6, with “Squalene” for “Cholesterol”, “squalene (50 μL/mL)” for “cholesterol (0.25 mg/mL)”

[3] = tested on: 4T1 cells; experiment: Anti-tumor activity in 4T1 breast cancer mouse model; type: in vivo, BALB/c mice; set-up: key to Survival Status on Day 53: Dead means that the mouse died because of the tumor; Dead * means that the mouse died from attack by other mice
Procedure: On Day 0, after the injection process as described above was completed, 0.05 mL of the phosphate buffered saline (PBS) comprising 4T1 cells (2×10^6 cells/mL; 4T1 cell is abreast cancer cell line) was injected subcutaneously into the abdominal mammary fat pad of the mice in each group, and the tumor volume and survival status of mice were initially monitored on this day (Day 0). Tumor volume was calculated by ½*(4*3.14/3)*(length/2)*(width/2)*height*1000, and the observation of the tumor volume and survival status was stopped if the mouse was defined as either death or paralysis or the tumor volume of the mouse exceeding 1000 mm^3.

[4] = tested on: CD4+ T cell; experiment: T cell immunity: CD4+ T cells in splenocytes of immunized mice (flow cytometry); conditions: splenocytes on day 28; i.m. on day 0 and day 14
Procedure: (§7) 12 BALB/c mice were randomly assigned into 4 groups (three mice per group), which were PBS group, WT1 group, WT1+IFN-alpha-based adjuvant group, and WT1+Squalene@HACH group.
(§8) PBS group: 50 μL of the phosphate buffered saline was injected intramuscularly into both of the left and right quadriceps of mice on day 0 and day 14.
(§9) WT1 group: 50 μL of the sodium citrate solution comprising 25 μL of WT1 protein was injected intramuscularly into both of the left and right quadriceps of mice on day 0 and day 14. […]
(§10) The splenocytes were isolated by the following procedure: the spleen was gently pressed with the plunger seal of a 5-mL syringe on a 70-μm cell strainer into a 50-mL tube and washed through a cell strainer with RPMI 1640 containing 10% (v/v) FBS. […] The cell solution was counted and diluted to the desired cell concentrations.
(§11) The cell suspensions obtained from the spleen of mice in each group were respectively mixed with a medium containing titrated fluorescent conjugates of monoclonal antibodies CD8a-Alexa Fluor 647 (BD Pharmingen), and CD4-FITC (Thermo Fisher). […] Finally, the stained cells were washed with staining buffer and analyzed by BD Accuri™ C6 flow cytometer.

[5] = tested on: CD8+ T cell; experiment: T cell immunity: CD8+ T cells in splenocytes of immunized mice (flow cytometry); conditions: splenocytes on day 28; i.m. on day 0 and day 14
Procedure: as §7, §8, §9, §10, §11

[6] = Condition suitable for self-assembly of Squalene@HACH particles (appearance of 28 compositions); type: physicochemical; conditions: by together forming squalene@HACH particles
Procedure: In this experiment, the condition suitable for self-assembly of Squalene@HACH particles was assessed and shown in a Ternary diagram.
There were 28 groups in this experiment, that is, the first to the 28th group. The preparation procedure of the compositions in each group was roughly the same as the experimental procedure of Composition comprising Squalene@HACH particles described in Experiment 1-1-4. The only differences were the weight of squalene, the weight of HACH, and the weight of sodium citrate solution (aqueous buffer solution).
Squalene@HACH particles in the compositions were detected and analyzed by dynamic light scattering, particle size analyzer, or transmission electron microscope. Moreover, please note that if the self-assembly of the Squalene@HACH particles occur in the composition, the composition would be a milk-like mixture solution (milk-like suspension).

[7] = individual mouse, i.m. on Day −14 and Day 0, 4T1 cells s.c. on Day 0

## CCCCCCCCCCCCCCCCCCN [ODA, octadecan-1-amine]
[1]
  Dendritic cells (CD11c+) recruitment, in words: lack the ability to recruit
[2]
  Macrophages (CD11b+) recruitment, in words: lack the ability to recruit

## CC(C)CCC[C@@H](C)[C@H]1CC[C@H]2[C@@H]3CC=C4C[C@@H](O)CC[C@]4(C)[C@H]3CC[C@]12C [cholesterol]
[1]
  Dendritic cells (CD11c+) recruitment, in words: lack the ability to recruit
[2]
  Macrophages (CD11b+) recruitment, in words: lack the ability to recruit

## CC(C)=CCC/C(C)=C/CC/C(C)=C/CC/C=C(\C)CC/C=C(\C)CCC=C(C)C [squalene]
[1]
  Dendritic cells (CD11c+) recruitment, in words: lack the ability to recruit
[2]
  Macrophages (CD11b+) recruitment, in words: lack the ability to recruit

## WT1: WT1 protein, targeted antigen, given alone in sodium citrate solution
[1]
  Dendritic cells (CD11c+) recruitment, in words: lacks the ability to recruit
[2]
  Macrophages (CD11b+) recruitment, in words: lacks the ability to recruit
[3]; [7]
  Survival Status on Day 53: Dead
  The day of the Tumor Growth: Day 18; also recorded: Day 21; also recorded: Day 25
[3]; of 6 mice per group
  Mice died on Day 53: 6 mice
  Mice in which tumor developed: 6 mice
[3]; range over tumor-bearing mice of the group
  Tumor was initially developed between: 18 to 25 days
[4]
  CD4+ T cell: 34.1%
[5]
  CD8+ T cell: 27.5%

## hyaluronic acid-cholesterol conjugate [HACH]
[6]
  Weight units of squalene coated by 1 weight unit of HACH: 80 weight units
